Source: patent US8476255B2, “Histone deacetylase inhibitors” (Orchid Chemicals & Pharmaceuticals Limited, priority 2007, dated 2013)

Assays:
Type in all cases: cell-based
[1] = test system: NCIH460 (lung) cells; experiment: Anti-cancer screen (MTT), NCIH460; conditions: Homo sapiens, NCI-H460, NCIH460, 48 hours, MTT; for GI50: read-out: Cell growth inhibition NCIH460 (Lung) GI50; for LC50: read-out: Cell growth inhibition NCIH460 (Lung) LC50; for IC (TGI): read-out: Cell growth inhibition NCIH460 (Lung) TGI
Method: (§1) Experimental drugs were screened for anti-cancer activity in three cell lines using five concentrations for each compound. The cell lines —HCT 116 (colon), NCIH460 (lung) and U251 (glioma) were maintained in DMEM containing 10% fetal bovine serum. 96-well microtiter plates are inoculated with cells in 100 μL of cell suspension (5×10^4 cells/mL) for 24 hours at 37° C., 5% CO2, 95% air and 100% relative humidity. A separate plate with these cell lines is also inoculated to determine cell viability before the addition of the compounds (T0).
(§2) Following 24-hours incubation, test compounds were added to the 96 well plates. Each plate contains one of the above cell lines and the following samples in triplicate: five different dilutions (0.01, 0.1, 1, 10 and 100 μM) of four test compounds, appropriate dilutions of a cytotoxic standard and growth medium (untreated) wells. Test compounds were dissolved in DMSO to prepare 20 mM stock solutions on the day of drug addition and serial dilutions were carried out in complete growth medium at 2× strength such that 100 μL added to wells gave final concentrations (0.01, 0.1, 1, 10 and 100 μM) in the well. SAHA was used as standard drug in these experiments.
(§3) For T0 measurement, 24 hours after seeding the cells, 20 μL of 3-(4,5-dimethyl-2-thiazolyl)-2,5-diphenyl-2H-tetrazolium (MTT) solution per well was added to the ‘T0’ plate and incubated for 3 hours at 37° C. in a CO2 incubator. The plate containing cells and test compounds was treated similarly after 48 hours of incubation. After 3 hours of MTT addition, well contents were aspirated carefully followed by addition of 150 μL DMSO per well. Plates were agitated to ensure dissolution of the formazan crystals in DMSO and absorbance was read at 570 nm (A570).
(§4) (Mosmann T. Rapid colorimetric assay for cellular growth and survival: application to proliferation and cytotoxicity assays. J Immunol Methods 1983; 65(1-2): 55-63; Anne Monks et al. Feasibility of high-flux anticancer drug screen using a diverse panel of cultured human tumor cell lines”. JNCI, Vol. 83, No. 11, 1991).

[2] = test system: HCT 116 (colon) cells; experiment: Anti-cancer screen (MTT), HCT 116; conditions: Homo sapiens, HCT-116, HCT116, 48 hours, MTT; for GI50: read-out: Cell growth inhibition HCT116 (Colon) GI50; for CC50: read-out: Cell growth inhibition HCT116 (Colon) LC50; for IC (TGI): read-out: Cell growth inhibition HCT116 (Colon) TGI
Method: as §1, §2, §3, §4

[3] = test system: U251 (glioma) cells; experiment: Anti-cancer screen (MTT), U251; conditions: Homo sapiens, U-251, U251, 48 hours, MTT; for GI50: read-out: Cell growth inhibition U251 (Glioma) GI50; for LC50 (concentration giving 50% net cell kill relative to the time-zero cell count): read-out: Cell growth inhibition U251 (Glioma) LC50; for IC (TGI): read-out: Cell growth inhibition U251 (Glioma) TGI
Method: as §1, §2, §3, §4

[4] = test system: NCIH460, HCT116 and U251 cells; experiment: Anti-cancer screen, mean GI50 over cell lines; conditions: mean over cell lines; read-out: Cell growth inhibition Mean GI50
Method: as §1, §2, §3, §4

CSc1ccc(/C=C(/C(=O)NCc2ccc(C(=O)Nc3ccccc3N)cc2)c2ccccc2Cl)cc1 [Compound 23, N-(2-Aminophenyl)-4-((3-(4-methylthiophenyl)-2-(2-chlorophenyl)acrylamido)methyl)benzamide]
GI50 [1]: 34 µM
LC50 [1]: > 100 µM
IC (TGI) [1]: > 100 µM
GI50 [2]: 4 µM
CC50 [2]: 98 µM
IC (TGI) [2]: 8 µM
GI50 [3]: > 100 µM
LC50 (concentration giving 50% net cell kill relative to the time-zero cell count) [3]: > 100 µM
IC (TGI) [3]: > 100 µM
GI50 [4]: 19 µM

COc1ccc(/C(=C\c2ccc(SC)cc2)C(=O)NCc2ccc(C(=O)NO)cc2)cc1 [Compound 57, 4-((2-(4-Methoxyphenyl)-3-(4-methylthiophenyl)acrylamido)methyl)-N-hydroxybenzamide]
GI50 [1]: 3 µM
LC50 [1]: 33 µM
IC (TGI) [1]: 8 µM
GI50 [2]: 1.8 µM
CC50 [2]: 54 µM
IC (TGI) [2]: 8 µM
GI50 [3]: 0.2 µM
LC50 (concentration giving 50% net cell kill relative to the time-zero cell count) [3]: 60 µM
IC (TGI) [3]: 0.4 µM
GI50 [4]: 1.7 µM

CSc1ccc(/C=C(/C(=O)NCc2ccc(C(=O)NO)cc2)c2ccc(C)cc2)cc1 [Compound 58, 4-((2-(4-Methylphenyl)-3-(4-methylthiophenyl)acrylamido)methyl)-N-hydroxybenzamide]
GI50 [1]: 2.1 µM
LC50 [1]: 81 µM
IC (TGI) [1]: 6 µM
GI50 [2]: 2.8 µM
CC50 [2]: 65 µM
IC (TGI) [2]: 18 µM
GI50 [3]: 21 µM
LC50 (concentration giving 50% net cell kill relative to the time-zero cell count) [3]: 80 µM
IC (TGI) [3]: 35 µM
GI50 [4]: 8.6 µM

COc1ccc(/C(=C\c2ccc(SC)cc2)C(=O)NCCCCCC(=O)NO)cc1 [Compound 92, 6-(2-(4-Methoxyphenyl)-3-(4-methylthiophenyl)acrylamido)-N-hydroxy hexanamide]
GI50 [1]: 6 µM
LC50 [1]: 82 µM
IC (TGI) [1]: 40 µM
GI50 [2]: 7.5 µM
CC50 [2]: 87 µM
IC (TGI) [2]: 46 µM
GI50 [3]: 10 µM
LC50 (concentration giving 50% net cell kill relative to the time-zero cell count) [3]: 76 µM
IC (TGI) [3]: 16 µM
GI50 [4]: 7.8 µM

O=C(CCCCCNC(=O)/C(=C/C1CC1)c1ccc(F)cc1)NO [Compound 93, 6-(2-(4-Fluorophenyl)-3-(cyclopropyl)acrylamido)-N-hydroxy hexanamide]
GI50 [1]: > 100 µM
LC50 [1]: > 100 µM
IC (TGI) [1]: > 100 µM
GI50 [2]: 54 µM
CC50 [2]: > 100 µM
IC (TGI) [2]: > 100 µM
GI50 [3]: 92 µM
LC50 (concentration giving 50% net cell kill relative to the time-zero cell count) [3]: > 100 µM
IC (TGI) [3]: > 100 µM
GI50 [4]: 73 µM

CSc1ccc(/C=C(/C(=O)NCCCCCC(=O)NO)c2ccccc2F)cc1 [Compound 94, 6-(2-(2-Fluorophenyl)-3-(4-methylthiophenyl)acrylamido)-N-hydroxy hexanamide]
GI50 [1]: 4.2 µM
LC50 [1]: 74 µM
IC (TGI) [1]: 26 µM
GI50 [2]: 3.3 µM
CC50 [2]: 80 µM
IC (TGI) [2]: 22 µM
GI50 [3]: 1 µM
LC50 (concentration giving 50% net cell kill relative to the time-zero cell count) [3]: 70 µM
IC (TGI) [3]: 10 µM
GI50 [4]: 2.8 µM
